Source: the NIST ThermoML archive (doi:10.1021/je700717w)

What was measured:
[1] = xn = mol fraction of the nth substance listed; details: 101 kPa, Liquid, Taylor dispersion method, x1 = 0
[2] = 101 kPa, Liquid, Taylor dispersion method

[N-]=[N+]=O [nitrous oxide] + O
binary diffusion coefficient ([1]; 293.15 K): 1.7e-09 m2/s | binary diffusion coefficient ([1]; 298.15 K): 2.05e-09 m2/s | binary diffusion coefficient ([1]; 303.15 K): 2.3e-09 m2/s | binary diffusion coefficient ([1]; 313.15 K): 2.99e-09 m2/s | binary diffusion coefficient ([1]; 323.15 K): 4.02e-09 m2/s | binary diffusion coefficient ([1]; 333.15 K): 4.9e-09 m2/s | binary diffusion coefficient ([1]; 343.15 K): 5.79e-09 m2/s | binary diffusion coefficient ([1]; 353.15 K): 7.09e-09 m2/s | binary diffusion coefficient ([1]; 363.15 K): 8.23e-09 m2/s | binary diffusion coefficient ([1]; 368.15 K): 8.87e-09 m2/s

O [water]
self diffusion coefficient ([2]; 293.15 K): 1.7e-09 m2/s | self diffusion coefficient ([2]; 298.15 K): 2.05e-09 m2/s | self diffusion coefficient ([2]; 303.15 K): 2.3e-09 m2/s | self diffusion coefficient ([2]; 313.15 K): 2.99e-09 m2/s | self diffusion coefficient ([2]; 323.15 K): 4.02e-09 m2/s | self diffusion coefficient ([2]; 333.15 K): 4.9e-09 m2/s | self diffusion coefficient ([2]; 343.15 K): 5.79e-09 m2/s | self diffusion coefficient ([2]; 353.15 K): 7.09e-09 m2/s | self diffusion coefficient ([2]; 363.15 K): 8.23e-09 m2/s | self diffusion coefficient ([2]; 368.15 K): 8.87e-09 m2/s
